The values below are quoted from earlier work in patent publication US20120263802A1 (priority 2003, published 2012).

Structures are written as SMILES.

The test system of one data set is range of models. The conditions noted are these: once-daily oral administration; Wedge et al, Proc. Am. Assoc. Canc. Res. 2001; 42: abstract 3126.

For the compound `COc1cc2c(Nc3ccc(Br)cc3F)ncnc2cc1OCC1CCN(C)CC1` [ZD6474, 4-(4-bromo-2-fluoroanilino)-6-methoxy-7-(1-methylpiperidin-4-ylmethoxy)quinazoline], the anti-tumour activity entry with range of models is reported as “broad-spectrum anti-tumour activity”. In addition, the “inhibition of VEGF RTK” value in the data set with VEGF RTK is listed as “potent inhibitor”.
